Source: US5547870A, “Oxalate decarboxylate” (Zeneca Limited, priority 1994, dated 1996)
Structures can show the parent of a compound that is named as a salt. Blank lines part the entries; values can stand above or below the molecule they belong to.

What was measured:
[1] = target: T1, Collybia velutipes oxalate decarboxylase, purified native enzyme, peak A (eluting at pH 3.3 on chromatofocusing) (Flammulina velutipes, UniProt Q9UVK4); test: Oxalate decarboxylase assay: liberation of 14CO2 from [14C]-oxalic acid; Lineweaver-Burk plots; type: biochemical, Collybia velutipes (strain S. A.T.C.C 13547)
T1 construct: chromatofocusing peak A (pH 3.3); about 55 kDa when deglycosylated
T1 sequence (Q9UVK4 21-447): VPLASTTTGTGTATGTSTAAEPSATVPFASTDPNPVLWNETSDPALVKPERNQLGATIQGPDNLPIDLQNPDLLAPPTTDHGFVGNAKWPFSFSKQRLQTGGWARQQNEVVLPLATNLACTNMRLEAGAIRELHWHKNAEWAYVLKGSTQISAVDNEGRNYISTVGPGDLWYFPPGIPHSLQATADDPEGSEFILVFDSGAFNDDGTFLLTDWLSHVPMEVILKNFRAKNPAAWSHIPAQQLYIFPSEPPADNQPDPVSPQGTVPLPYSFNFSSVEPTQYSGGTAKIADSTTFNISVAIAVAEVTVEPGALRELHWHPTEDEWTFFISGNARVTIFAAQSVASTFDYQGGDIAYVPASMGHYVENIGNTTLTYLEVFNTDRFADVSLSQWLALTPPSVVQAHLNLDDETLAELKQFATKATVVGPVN
Protocol: (§1) The oxalate decarboxylase activity was also determined by measuring the liberation of ^14 CO2 from [^14 C]-oxalic acid (Amersham, 4.1 mCi/mmol). The enzyme assay was carried out in small glass vails which contained 1 ml of the following reaction mixture: 0.2M potassium citrate, pH 3.0, 0.005M potassium oxalate, pH 3.0, 5.6 nmoles (0.0227 μCi) of (^14 C)-oxalic acid and 0.2 ml of enzyme solution. The tubes were preincubated for 5 min before the addition of enzyme. The tubes were sealed with rubber-stoppers and incubated at 37° C. for 30 min in a shaking water bath. The reaction was terminated by injection of 0.2 ml of 50% v/v trichloroacetic acid through the rubber caps and the tubes were shaken for additional 60 min to trap all the ^14 CO2 evolved in the 0.2 ml methylbenzethonium hydroxide(Sigma) placed in a plastic vial inside the glass tube. The plastic wells were withdrawn and the contents transferred to 5 ml of toluene based scintillation fluid and radioactivity determined in a liquid scintillation counter. Blanks tubes were set up in which the 0.2 ml of 50% TCA was added before the enzyme or the enzyme was omitted. In kinetic experiments, the values were corrected for the radioactivity obtained from the boiled denatured enzyme.
(§2) One unit was defined as the amount of enzyme releasing 1 μmole of ^14 CO2 per min at 37° C. under standard assay conditions. The overall assay efficiency was usually between 60-70%. Protein was determined by Lowry microassay method (Peterson, Anal. Biochem. 83:346 (1977)). Vmax and Km were determined by Lineweaver-Burk plot (Lineweaver and Burk, J. Am. Chem. Soc. 56:658-666 (1934)).

[2] = substrate: O=C(O)C(=O)O; test: as above; type: biochemical, Collybia velutipes (strain S. A.T.C.C 13547); conditions: other: peak A enzyme, Lineweaver-Burk plot, 0.2M potassium citrate pH 3.0, 37° C.
Protocol: as §1, with “The reaction was terminated by injection of 0.2 ml of 50% v/v trichloroacetic acid through the rubber caps and the tubes were shaken for additional 60 min to trap all the ^14 CO2 evolved in the 0.2 ml methylbenzethonium hydroxide(Sigma) placed in a plastic vial inside the glass tube.” left out, “Blanks tubes were set up in which the 0.2 ml of 50% TCA was added before the enzyme or the enzyme was omitted.” left out
as §2, with “The overall assay efficiency was usually between 60-70%.” left out

Ki ([1]; competitive inhibition, 90 mM PO4^2- added to the reaction, read-out: Ki (phosphate ions)): 9 mM
Molecule: O=P(O)(O)O [phosphate ions, phosphate]

Vmax ([1]; peak A enzyme, potassium oxalate as substrate, Lineweaver-Burk plot, pH 3.0, 37° C.): 166 µmol/min/mg
Molecule: O=C(O)C(=O)O [potassium oxalate]

Molecule: O=S(=O)(O)c1cc[c]([Hg][Cl])cc1 [p-chloromercuribenzenesulfonic acid]
activity retained in the presence of sulfhydryl group reagent ([1]; 50 mM reagent): 95%

Molecule: O=C(O)CI [iodoacetate]
activity at 50000 µM ([1]; read-out: activity retained in the presence of sulfhydryl group reagent): 95%

B1: Collybia velutipes oxalate decarboxylase, purified native enzyme, peak A (eluting at pH 3.3 on chromatofocusing) (Flammulina velutipes) (protein)
chain: T1 sequence (Q9UVK4 21-447)
notes: chromatofocusing peak A (pH 3.3); about 55 kDa when deglycosylated
Km [2]: 4.5 mM
Vmax [2]: 166 µmol/min/mg
